Test results reported in ChEMBL document CHEMBL1833792, “Synthesis of glycoconjugate carbonic anhydrase inhibitors by ruthenium-catalysed azide-alkyne 1,3-dipolar cycloaddition” (Bioorg Med Chem Lett, 2011).

Key:
[1] = Selectivity ratio of Ki for carbonic anhydrase 1 to Ki for carbonic anhydrase 9
[2] = molecular target: Carbonic anhydrase 1 (Homo sapiens) (UniProt P00915)
Description: Inhibition of recombinant carbonic anhydrase 1 by stopped flow CO2 hydration assay

[3] = molecular target: Carbonic anhydrase 2 (Homo sapiens) (UniProt P00918)
Description: Inhibition of recombinant carbonic anhydrase 2 by stopped flow CO2 hydration assay

[4] = Selectivity ratio of Ki for carbonic anhydrase 2 to Ki for carbonic anhydrase 9
[5] = molecular target: Carbonic anhydrase 9 (Homo sapiens) (UniProt Q16790)
Description: Inhibition of recombinant carbonic anhydrase 9 by stopped flow CO2 hydration assay

[6] = Selectivity ratio of Ki for carbonic anhydrase 1 to Ki for carbonic anhydrase 2

Chain of Carbonic anhydrase 1 (Homo sapiens) (P00915 2-261 limits assumed): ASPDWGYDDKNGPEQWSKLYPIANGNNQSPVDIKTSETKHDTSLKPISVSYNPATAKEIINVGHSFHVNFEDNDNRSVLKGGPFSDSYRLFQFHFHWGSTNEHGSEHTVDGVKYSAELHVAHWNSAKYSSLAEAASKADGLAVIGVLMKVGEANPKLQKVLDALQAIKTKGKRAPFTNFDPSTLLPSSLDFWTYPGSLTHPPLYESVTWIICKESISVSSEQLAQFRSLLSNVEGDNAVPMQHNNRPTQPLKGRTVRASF

SMILES | Ratio Ki [1] | Kis [2] | Kis [3] | Ratio Ki [4] | Kis [5] | Ratio Ki [6]
NS(=O)(=O)c1ccc(-c2cnnn2[C@@H]2OC[C@@H](O)[C@@H](O)[C@@H]2O)cc1 | 1.7 | 83 nM | 8.9 nM | 0.18 | 48.3 nM | 
CC(=O)O[C@H]1[C@H](OC(C)=O)[C@H](OC(C)=O)CO[C@H]1n1nncc1-c1ccc(S(N)(=O)=O)cc1 | 64 | 4390 nM | 2.9 nM | 0.04 | 68.3 nM | 1510
CC(=O)OC[C@H]1O[C@@H](n2nncc2-c2ccc(S(N)(=O)=O)cc2)[C@H](OC(C)=O)[C@@H](OC(C)=O)[C@@H]1O[C@H]1O[C@H](COC(C)=O)[C@@H](OC(C)=O)[C@H](OC(C)=O)[C@H]1OC(C)=O | 0.91 | 6.7 nM | 6.3 nM | 0.85 | 7.4 nM | 
NS(=O)(=O)c1ccc(-c2cnnn2[C@@H]2O[C@H](CO)[C@@H](O)[C@H](O)[C@H]2O)cc1 | 11 | 74 nM | 7.5 nM | 1.1 | 7 nM | 
NS(=O)(=O)c1ccc(-c2cnnn2[C@@H]2O[C@H](CO)[C@H](O)[C@H](O)[C@H]2O)cc1 | 9.4 | 79 nM | 13.9 nM | 1.7 | 8.4 nM | 
CC(=O)OC[C@H]1O[C@@H](n2nncc2-c2ccc(S(N)(=O)=O)cc2)[C@H](OC(C)=O)[C@@H](OC(C)=O)[C@@H]1OC(C)=O | 42.7 | 1360 nM | 163 nM | 5 | 32.6 nM | 
NS(=O)(=O)c1ccc(-c2cnnn2[C@@H]2O[C@H](CO)[C@@H](O[C@H]3O[C@H](CO)[C@@H](O)[C@H](O)[C@H]3O)[C@H](O)[C@H]2O)cc1 | 0.56 | 4.9 nM | 4.6 nM | 0.53 | 8.7 nM | 
COC(=O)[C@H]1O[C@@H](n2nncc2-c2ccc(S(N)(=O)=O)cc2)[C@H](OC(C)=O)[C@@H](OC(C)=O)[C@@H]1OC(C)=O | 0.45 | 3.5 nM | 3.1 nM | 0.4 | 7.7 nM | 
CC(=O)OC[C@H]1O[C@@H](n2nncc2-c2ccc(S(N)(=O)=O)cc2)[C@H](OC(C)=O)[C@@H](OC(C)=O)[C@H]1OC(C)=O | 9.7 | 71 nM | 2.4 nM | 0.33 | 7.3 nM | 
